Patent publication US20260176320A1, “MODULATORS OF G-PROTEIN COUPLED RECEPTORS” (priority 2018, published 2026)
Where two headings read alike, the source gives them in different places. Numbered stars: 1 amine (or outer) side, 2 acyl side, 3 side chain; on linkers, the order of the positions; unused ones are H or OH. Square brackets hold non-standard residues; d marks the D form. Side chains are listed from the residue outwards. Peptide text beside a SMILES is read from it. * marks the point of attachment. X9 = O=C([C@H](Cc1cc(O)no1)N[*:1])[*:2]; γGlu = O=C(O)[C@H](CCC(=O)[*:2])N[*:1]; Palmitoyl = CCCCCCCCCCCCCCCC(=O)*; X6 = O=C(CSCC(=O)*)NCCN1CCCCC1=O; Aib = CC(C)(N)C(=O)O

Key:
GIP-R = target: T1, GIP-R (Homo sapiens, UniProt P48546); experiment: HitHunter cAMP assay (GIP-R); format: cell-based; conditions: Table 3A, cAMP; for Emax: read-out: (Emax) GIP-R
T1 sequence (P48546 22-466): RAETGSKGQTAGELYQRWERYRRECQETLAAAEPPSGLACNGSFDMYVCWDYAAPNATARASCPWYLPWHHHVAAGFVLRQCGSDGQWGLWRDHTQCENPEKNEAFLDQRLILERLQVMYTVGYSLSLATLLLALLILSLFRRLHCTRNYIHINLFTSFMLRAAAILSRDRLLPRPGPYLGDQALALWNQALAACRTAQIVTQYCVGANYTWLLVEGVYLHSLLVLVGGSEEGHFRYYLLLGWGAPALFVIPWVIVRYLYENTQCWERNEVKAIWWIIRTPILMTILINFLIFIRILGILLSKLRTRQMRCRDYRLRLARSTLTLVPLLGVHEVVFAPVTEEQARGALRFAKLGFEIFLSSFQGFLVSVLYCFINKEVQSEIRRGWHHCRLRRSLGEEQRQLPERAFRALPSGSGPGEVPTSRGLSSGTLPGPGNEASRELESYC
Outline: (§1)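 Suspension cells (10,000/well) in HBSS with 10 mM HEPES, 625 μM IBMX, 0.2% BSA exposed to 22-point 2-fold agonist series in duplicate for 30 min at room temperature. cAMP measured by antibody immunocompetition with overnight development, luminescence read-out.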

GLP-1R = GLP-1R (Homo sapiens, UniProt P43220); experiment: HitHunter cAMP assay (GLP-1R); format: cell-based; conditions: Table 3A, cAMP; for Emax: read-out: (Emax) GLP-1R
Outline: as §1

Sequence of GLP-1R (P43220 24-463): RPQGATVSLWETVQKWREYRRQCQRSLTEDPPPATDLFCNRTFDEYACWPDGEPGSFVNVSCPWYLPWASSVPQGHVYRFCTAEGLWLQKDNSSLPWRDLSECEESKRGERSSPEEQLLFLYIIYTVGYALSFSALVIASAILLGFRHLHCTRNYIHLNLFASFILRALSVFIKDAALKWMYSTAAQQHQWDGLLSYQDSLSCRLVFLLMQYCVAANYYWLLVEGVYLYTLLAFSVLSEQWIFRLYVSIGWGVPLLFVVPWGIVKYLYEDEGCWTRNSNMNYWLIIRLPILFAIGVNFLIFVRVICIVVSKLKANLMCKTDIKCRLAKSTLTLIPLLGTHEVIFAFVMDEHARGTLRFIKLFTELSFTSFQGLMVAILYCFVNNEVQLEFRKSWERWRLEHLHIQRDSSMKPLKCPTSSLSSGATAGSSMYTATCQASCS

SMILES | Emax (GIP-R) [%] | EC50 (GIP-R; read-out: EC50 GIP-R/nM) [nM] | Emax (GLP-1R) [%] | EC50 (GIP-R; EC50 GIP-R/nM) [nM] | EC50 (GLP-1R; EC50 GLP-1R/nM) [nM] | EC50 (GLP-1R; read-out: EC50 GLP-1R/nM) [nM]
CCCCCCCCCCCCCCCC(=O)N[C@@H](CCC(=O)NCCCC[C@H](NC(=O)[C@H](CO)NC(=O)[C@@H]1CCCN1C(=O)[C@@H]1CCCN1C(=O)[C@@H]1CCCN1C(=O)[C@H](C)NC(=O)CNC(=O)[C@H](CO)NC(=O)[C@H](CO)NC(=O)[C@@H]1CCCN1C(=O)CNC(=O)CNC(=O)[C@H](C)NC(=O)[C@H](CC(C)C)NC(=O)[C@H](CC(C)C)NC(=O)[C@H](Cc1c[nH]c2ccccc12)NC(=O)[C@H](CC(N)=O)NC(=O)[C@@H](NC(=O)[C@H](Cc1ccccc1)NC(=O)[C@H](CCC(=O)O)NC(=O)C(C)(C)NC(=O)[C@H](C)NC(=O)[C@H](C)NC(=O)[C@H](CCC(N)=O)NC(=O)[C@H](CCCCN)NC(=O)[C@H](CC(=O)O)NC(=O)[C@H](CC(C)C)NC(=O)[C@H](Cc1ccc(O)cc1)NC(=O)[C@@H](NC(=O)[C@H](CO)NC(=O)[C@H](Cc1ccc(O)cc1)NC(=O)[C@H](CC(=O)O)NC(=O)[C@H](CO)NC(=O)[C@@H](NC(=O)[C@H](Cc1ccccc1)NC(=O)[C@@H](NC(=O)CNC(=O)[C@H](CCC(=O)O)NC(=O)CCNC(=O)CCN1CCCCCC1=O)[C@@H](C)O)[C@@H](C)O)[C@@H](C)CC)C(C)C)C(N)=O)C(=O)O [Compound 267] | 40 | 10 to 100 | 100 | – | – | –
CCCCCCCCCCCCCCCC(=O)N[C@@H](CCC(=O)NCCCC[C@H](NC(=O)[C@H](CO)NC(=O)[C@@H]1CCCN1C(=O)[C@@H]1CCCN1C(=O)[C@@H]1CCCN1C(=O)[C@H](C)NC(=O)CNC(=O)[C@H](CO)NC(=O)[C@H](CO)NC(=O)[C@@H]1CCCN1C(=O)CNC(=O)CNC(=O)[C@H](C)NC(=O)[C@H](CC(C)C)NC(=O)[C@H](CC(C)C)NC(=O)[C@H](Cc1c[nH]c2ccccc12)NC(=O)[C@H](CC(N)=O)NC(=O)[C@@H](NC(=O)[C@H](Cc1ccccc1)NC(=O)[C@H](CCC(=O)O)NC(=O)C(C)(C)NC(=O)[C@H](C)NC(=O)[C@H](C)NC(=O)[C@H](CCC(N)=O)NC(=O)[C@H](CCCCN)NC(=O)[C@H](CC(=O)O)NC(=O)[C@H](CC(C)C)NC(=O)[C@H](Cc1ccc(O)cc1)NC(=O)[C@@H](NC(=O)[C@H](CO)NC(=O)[C@H](Cc1ccc(O)cc1)NC(=O)[C@H](CC(=O)O)NC(=O)[C@H](CO)NC(=O)[C@@H](NC(=O)[C@H](Cc1ccccc1)NC(=O)[C@@H](NC(=O)CNC(=O)[C@H](CCC(=O)O)NC(=O)CSCC(=O)NCCN1Cc2ccccc2CC1=O)[C@@H](C)O)[C@@H](C)O)[C@@H](C)CC)C(C)C)C(N)=O)C(=O)O [Compound 270] | 90 | – | 90 | 1 to 10 | 1 to 10 | –
CCCCCCCCCCCCCCCC(=O)N[C@@H](CCC(=O)NCCCC[C@H](NC(=O)[C@H](CO)NC(=O)[C@@H]1CCCN1C(=O)[C@@H]1CCCN1C(=O)[C@@H]1CCCN1C(=O)[C@H](C)NC(=O)CNC(=O)[C@H](CO)NC(=O)[C@H](CO)NC(=O)[C@@H]1CCCN1C(=O)CNC(=O)CNC(=O)[C@H](C)NC(=O)[C@H](CC(C)C)NC(=O)[C@H](CC(C)C)NC(=O)[C@H](Cc1c[nH]c2ccccc12)NC(=O)[C@H](CC(N)=O)NC(=O)[C@@H](NC(=O)[C@H](Cc1ccccc1)NC(=O)[C@H](CCC(=O)O)NC(=O)C(C)(C)NC(=O)[C@H](C)NC(=O)[C@H](C)NC(=O)[C@H](CCC(N)=O)NC(=O)[C@H](CCCCN)NC(=O)[C@H](CC(=O)O)NC(=O)[C@H](CC(C)C)NC(=O)[C@H](Cc1ccc(O)cc1)NC(=O)[C@@H](NC(=O)[C@H](CO)NC(=O)[C@H](Cc1ccc(O)cc1)NC(=O)[C@H](CC(=O)O)NC(=O)[C@H](CO)NC(=O)[C@@H](NC(=O)[C@H](Cc1ccccc1)NC(=O)[C@@H](NC(=O)CNC(=O)[C@H](CCC(=O)O)NC(=O)CSCC(=O)NCCN1C(=O)[C@H]2CC[C@@H]1C2)[C@@H](C)O)[C@@H](C)O)[C@@H](C)CC)C(C)C)C(N)=O)C(=O)O [Compound 289] | 20 | – | 100 | 10 to 100 | < 0.1 | –
CCCCCCCCCCCCCCCC(=O)N[C@@H](CCC(=O)NCCCC[C@H](NC(=O)[C@H](CO)NC(=O)[C@@H]1CCCN1C(=O)[C@@H]1CCCN1C(=O)[C@@H]1CCCN1C(=O)[C@H](C)NC(=O)CNC(=O)[C@H](CO)NC(=O)[C@H](CO)NC(=O)[C@@H]1CCCN1C(=O)CNC(=O)CNC(=O)[C@H](C)NC(=O)[C@H](CC(C)C)NC(=O)[C@H](CC(C)C)NC(=O)[C@H](Cc1c[nH]c2ccccc12)NC(=O)[C@H](CC(N)=O)NC(=O)[C@@H](NC(=O)[C@H](Cc1ccccc1)NC(=O)[C@H](CCC(=O)O)NC(=O)C(C)(C)NC(=O)[C@H](C)NC(=O)[C@H](C)NC(=O)[C@H](CCC(N)=O)NC(=O)[C@H](CCCCN)NC(=O)[C@H](CC(=O)O)NC(=O)[C@H](CC(C)C)NC(=O)[C@H](Cc1ccc(O)cc1)NC(=O)[C@@H](NC(=O)[C@H](CO)NC(=O)[C@H](Cc1ccc(O)cc1)NC(=O)[C@H](CC(=O)O)NC(=O)[C@H](CO)NC(=O)[C@@H](NC(=O)[C@H](Cc1ccccc1)NC(=O)[C@@H](NC(=O)CNC(=O)[C@H](CCC(=O)O)NC(=O)CSCC(=O)NCCN1C(=O)[C@@H]2C=C[C@H]1C2)[C@@H](C)O)[C@@H](C)O)[C@@H](C)CC)C(C)C)C(N)=O)C(=O)O [Compound 290] | 10 | – | 100 | 10 to 100 | < 0.1 | –
CCCCCCCCCCCCCCCC(=O)N[C@@H](CCC(=O)NCCCC[C@H](NC(=O)[C@H](CO)NC(=O)[C@@H]1CCCN1C(=O)[C@@H]1CCCN1C(=O)[C@@H]1CCCN1C(=O)[C@H](C)NC(=O)CNC(=O)[C@H](CO)NC(=O)[C@H](CO)NC(=O)[C@@H]1CCCN1C(=O)CNC(=O)CNC(=O)[C@H](C)NC(=O)[C@H](CC(C)C)NC(=O)[C@H](CC(C)C)NC(=O)[C@H](Cc1c[nH]c2ccccc12)NC(=O)[C@H](CC(N)=O)NC(=O)[C@@H](NC(=O)[C@H](Cc1ccccc1)NC(=O)[C@H](CCC(=O)O)NC(=O)C(C)(C)NC(=O)[C@H](C)NC(=O)[C@H](C)NC(=O)[C@H](CCC(N)=O)NC(=O)[C@H](CCCCN)NC(=O)[C@H](CC(=O)O)NC(=O)[C@H](CC(C)C)NC(=O)[C@H](Cc1ccc(O)cc1)NC(=O)[C@@H](NC(=O)[C@H](CO)NC(=O)[C@H](Cc1ccc(O)cc1)NC(=O)[C@H](CC(=O)O)NC(=O)[C@H](CO)NC(=O)[C@@H](NC(=O)[C@H](Cc1ccccc1)NC(=O)[C@@H](NC(=O)CNC(=O)[C@H](CCC(=O)O)NC(=O)CSCC(=O)NCCN1C(=O)[C@@H]2CC[C@H]1C2)[C@@H](C)O)[C@@H](C)O)[C@@H](C)CC)C(C)C)C(N)=O)C(=O)O [Compound 291] | 60 | – | 100 | 1 to 10 | 0.1 to 1 | –
CCCCCCCCCCCCCCCC(=O)N[C@@H](CCC(=O)NCCCC[C@H](NC(=O)[C@H](CO)NC(=O)[C@@H]1CCCN1C(=O)[C@@H]1CCCN1C(=O)[C@@H]1CCCN1C(=O)[C@H](C)NC(=O)CNC(=O)[C@H](CO)NC(=O)[C@H](CO)NC(=O)[C@@H]1CCCN1C(=O)CNC(=O)CNC(=O)[C@H](C)NC(=O)[C@H](CC(C)C)NC(=O)[C@H](CC(C)C)NC(=O)[C@H](Cc1c[nH]c2ccccc12)NC(=O)[C@H](CC(N)=O)NC(=O)[C@@H](NC(=O)[C@H](Cc1ccccc1)NC(=O)[C@H](CCC(=O)O)NC(=O)C(C)(C)NC(=O)[C@H](C)NC(=O)[C@H](C)NC(=O)[C@H](CCC(N)=O)NC(=O)[C@H](CCCCN)NC(=O)[C@H](CC(=O)O)NC(=O)[C@H](CC(C)C)NC(=O)[C@H](Cc1ccc(O)cc1)NC(=O)[C@@H](NC(=O)[C@H](CO)NC(=O)[C@H](Cc1ccc(O)cc1)NC(=O)[C@H](CC(=O)O)NC(=O)[C@H](CO)NC(=O)[C@@H](NC(=O)[C@H](Cc1ccccc1)NC(=O)[C@@H](NC(=O)CNC(=O)[C@H](Cc1cc(O)no1)NC(=O)CSCC(=O)NCCN1CCCCC1=O)[C@@H](C)O)[C@@H](C)O)[C@@H](C)CC)C(C)C)C(N)=O)C(=O)O [Compound 292] (X6-[X9]GTFTSDYSIYLDKQAA[Aib]EFVNWLLAGGPSSGAPPPSK([γGlu-Palmitoyl])-NH2) | 50 | 10 to 100 | 90 | – | – | 1 to 10
